We go through 51 compounds from patent US10071095B2, “1,2,4-triazolo [4,3-A] pyridine derivatives and their use for the treatment of neurological and psychiatric disorders” (JANSSEN PHARMACEUTICALS, INC., priority 2009, dated 2018).

This experiment deals with T1, human mGluR2 receptor (Homo sapiens, UniProt Q14416).
T1 construct: expressed in transfected cells; host or cells: CHO cells
T1 sequence (Q14416 19-872): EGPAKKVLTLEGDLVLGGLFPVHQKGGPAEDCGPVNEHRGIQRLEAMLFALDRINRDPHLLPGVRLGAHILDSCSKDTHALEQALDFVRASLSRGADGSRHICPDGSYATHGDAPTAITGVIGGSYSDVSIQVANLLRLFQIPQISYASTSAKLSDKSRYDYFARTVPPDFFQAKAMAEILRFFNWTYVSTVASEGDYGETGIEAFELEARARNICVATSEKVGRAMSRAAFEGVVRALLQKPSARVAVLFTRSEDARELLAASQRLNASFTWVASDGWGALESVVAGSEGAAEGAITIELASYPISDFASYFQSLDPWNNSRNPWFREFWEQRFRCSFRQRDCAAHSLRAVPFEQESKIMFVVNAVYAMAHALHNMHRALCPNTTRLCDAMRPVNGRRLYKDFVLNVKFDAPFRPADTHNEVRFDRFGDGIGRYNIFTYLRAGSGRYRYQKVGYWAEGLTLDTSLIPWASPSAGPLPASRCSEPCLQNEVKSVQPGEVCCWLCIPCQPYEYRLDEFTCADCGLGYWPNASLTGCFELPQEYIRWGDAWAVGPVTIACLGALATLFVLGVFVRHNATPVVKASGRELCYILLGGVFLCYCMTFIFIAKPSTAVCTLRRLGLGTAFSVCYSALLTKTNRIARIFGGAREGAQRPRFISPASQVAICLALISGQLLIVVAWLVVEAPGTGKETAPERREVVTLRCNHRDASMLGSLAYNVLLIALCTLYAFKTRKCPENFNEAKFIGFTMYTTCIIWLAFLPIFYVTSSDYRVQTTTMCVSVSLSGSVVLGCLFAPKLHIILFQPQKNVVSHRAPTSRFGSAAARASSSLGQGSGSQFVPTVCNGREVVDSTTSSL
As to the kind of experiment: [35S]GTPγS binding assay, positive allosteric modulation (GTPγS-PAM) in presence of EC20 glutamate. It is filed as biochemical. Conditions: in presence of glutamate at EC20; average pEC50 if more experiments; ‡ means tested once. Here is the method:
[^35S]GTPγS Binding Assay
The [^35S]GTPγS binding assay is a functional membrane-based assay used to study G-protein coupled receptor (GPCR) function whereby incorporation of a non-hydrolysable form of GTP, [^35S]GTPγS (guanosine 5′-triphosphate, labelled with […] ^35S), is measured. The G-protein α subunit catalyzes the exchange of guanosine 5′-diphosphate (GDP) by guanosine triphosphate (GTP) and on activation of the GPCR by an agonist, [^35S]GTPγS, becomes incorporated and cannot be cleaved to continue the exchange cycle (Harper (1998) Current Protocols in Pharmacology 2.6.1-10, John Wiley & Sons, Inc.). […] Here we describe the use of the [^35S]GTPγS binding assay using membranes from cells transfected with the human mGluR2 receptor and adapted from Schaffhauser et al. ((2003) Molecular Pharmacology 4:798-810) for the detection of the positive allosteric modulation (PAM) properties of the compounds of this invention.
CHO-cells were cultured to pre-confluence and stimulated with 5 mM butyrate for 24 h, prior to washing in PBS, and then collected by scraping in homogenisation buffer (50 mM Tris-HCl buffer, pH 7.4, 4° C.). Cell lysates were homogenized briefly using an ultra-turrax homogenizer. The homogenate was centrifuged at 16,000 RPM (Sorvall RC-5C plus rotor SS-34) for 10 minutes and the supernatant discarded. The pellet was resuspended in 5 mM Tris-HCl, pH 7.4 and centrifuged again (18,000 RPM, 20 min, 4° C.). The final pellet was resuspended in 50 mM Tris-HCl, pH 7.4 and stored at −80° C. in appropriate aliquots before use. Protein concentration was determined by the Bradford method (Bio-Rad, USA) with bovine serum albumin as standard.
Measurement of mGluR2 positive allosteric modulatory activity of test compounds was performed as follows. Test compounds and glutamate were diluted in assay buffer containing 10 mM HEPES acid, 10 mM HEPES salt, pH 7.4, 100 mM NaCl, 3 mM MgCl2 and 10 μM GDP. Human mGlu2 receptor-containing membranes were thawed on ice and diluted in assay buffer supplemented with 14 μg/ml saponin. Membranes were pre-incubated with compound alone or together with a predefined (˜EC20) concentration of glutamate (PAM assay) for 30 min at 30° C. After addition of [^35S]GTPγS (f.c. 0.1 nM) microplates were shaken briefly and further incubated to allow [^35S]GTPγS incorporation on activation (30 minutes, 30° C.). Final assay mixtures contained 7 μg of membrane protein in 10 mM HEPES acid, 10 mM HEPES salt, pH 7.4, 100 mM NaCl, 3 mM MgCl2, 10 µM GDP and 10 μg/ml saponin. Total reaction volume was 200 μl. Reactions were terminated by rapid filtration through Unifilter-96 GF/B filter plates (Packard, Meriden, Conn.) using a 96-well Packard filtermate harvester. Filters were washed 6 times with ice-cold 10 mM NaH2PO4/10 mM Na2HPO4, pH 7.4. Filters were then air-dried, and 40 μl of liquid scintillation cocktail (Microscint-O) was added to each well. Membrane-bound radioactivity was counted in a Microplate Scintillation and Luminescence Counter from Packard.
The concentration-response curves of representative compounds of the present invention-obtained in the presence of EC20 of mGluR2 agonist glutamate to determine positive allosteric modulation (PAM)—were generated using the Lexis software interface (developed at J&J).
A general note: GTPγS is a poorly hydrolysed GTP analogue; its binding reports G protein activation.
In the case of `Cc1c(N2CCC3(CC2)OC(C)(C)c2ccccc23)ccn2c(CC3CC3)nnc12` [compound 154], the “GTPγS - hR2 PAM pEC50” value was 7.13. As for `FC(F)(F)Cc1nnc2c(Cl)c(N3CCC(c4ccccn4)CC3)ccn12` [compound 56], the figure is 6.02‡. As for `FC(F)(F)Cc1nnc2c(C(F)(F)F)c(N3CCC(c4ccccc4)CC3)ccn12` [compound 38], the figure is 7.74; as for `Fc1ccc(N2C[C@@H]3CN(c4ccn5c(CC6CC6)nnc5c4C(F)(F)F)C[C@@H]3C2)c(F)c1` [compound 166], 7.22; as for `CCCc1nnc2c(C(F)(F)F)c(N3CCC(c4ccccc4)CC3)ccn12` [compound 67], 7.36. As for `N#Cc1c(N2CCC(F)(c3ccccc3)CC2)ccn2c(CC3CC3)nnc12` [compound 40], the figure is 6.67.

Take `N#Cc1c(N2CCN(C3CCC(C(F)(F)F)CC3)CC2)ccn2c(CC(F)(F)F)nnc12` (stereo not drawn) [compound 73]: the “GTPγS - hR2 PAM pEC50” value amounted to 6.13. As for `COc1cccnc1C1CCN(c2ccn3c(CC4CC4)nnc3c2C(F)(F)F)CC1` [compound 91], the figure is 7.27; as for `N#Cc1c(N2CCC(c3ccccc3)CC2)ccn2c(-c3ccccc3)nnc12` [compound 205], 6.61‡; as for `CCCCc1nnc2c(C(F)(F)F)c(N3CC4C(C3)C4c3ccccc3)ccn12` (racemic) [compound 338], 7.42‡. On to `Fc1ccc(N2CCC3(CCN(c4ccn5c(CC6CC6)nnc5c4C(F)(F)F)CC3)C2)c(F)c1` [compound 202], for which the “GTPγS - hR2 PAM pEC50” value is reported as 7.86‡.

For `C[C@@H]1CN(c2ccn3c(CC(F)(F)F)nnc3c2Cl)CCN1c1cc(F)cc(F)c1` [compound 192], the “GTPγS - hR2 PAM pEC50” value was 6.63. As for `CCc1nnc2c(C(F)(F)F)c(N3CCC4(CC3)COc3ccccc34)ccn12` [compound 89], the figure is 6.46‡. As for `N#Cc1c(N2CCC(c3ccccc3)CC2)ccn2c(COCc3ccccc3)nnc12` [compound 32], the figure is 7.03; as for `COc1cccc(F)c1C1CCN(c2ccn3c(CC(F)(F)F)nnc3c2C#N)CC1` [compound 51], 8.35‡; as for `N#Cc1c(N2CCN(C3CCC(C(F)(F)F)CC3)CC2)ccn2c(CC3CC3)nnc12` (stereo not drawn) [compound 45], 6.07‡. Turning to `FC(F)(F)c1cccc(C2CCN(c3ccn4c(CC5CC5)nnc4c3Cl)CC2)c1` [compound 39], the “GTPγS - hR2 PAM pEC50” value came to 7.52. As for `CC(C)OCc1nnc2c(Cl)c(N3CCC(c4ccccc4)(C(F)(F)F)CC3)ccn12` [compound 144], the figure is 6.25. As for `FC(F)(F)c1c(N2CCC(Nc3ccccc3)CC2)ccn2c(CC3CC3)nnc12` [compound 175], the figure is 6.33; as for `FC(F)(F)c1c(N2CCC(c3ccccc3)(N3CCOCC3)CC2)ccn2c(CC3CC3)nnc12` [compound 62], 6.41.

As to `FC(F)(F)Cc1nnc2c(Cl)c(N3CC4C(C3)C4c3ccccc3)ccn12` (racemic) [compound 81], the “GTPγS - hR2 PAM pEC50” value stood at 6.85. As to `FC(F)(F)CCc1nnc2c(Cl)c(N3CCC(c4ccccc4)CC3)ccn12` [compound 71], the “GTPγS - hR2 PAM pEC50” value was 6.65‡. As for `CCCc1nnc2c(C(F)(F)F)c(N3CCC4(CC3)OC(C)(C)c3ccccc34)ccn12` [compound 113], the figure is 7.59.

In the case of `FC(F)(F)c1c(N2CCC(Oc3cccnc3)CC2)ccn2c(CC3CC3)nnc12` [compound 167], the “GTPγS - hR2 PAM pEC50” value was 6.47‡. As for `C[C@H]1CN(c2ccn3c(CC(F)(F)F)nnc3c2Cl)CCN1c1cc(F)cc(F)c1` [compound 191], the figure is 6.76; as for `Fc1ccccc1NC1CN(c2ccn3c(CC4CC4)nnc3c2Cl)C1` [compound 190], 6.5; as for `FC(F)(F)C1(OCc2cccnc2)CCN(c2ccn3c(CC4CC4)nnc3c2Cl)CC1` [compound 158], 6.14. As for `COCc1nnc2c(C#N)c(N3CCC(c4ccccc4)CC3)ccn12` [compound 24], the figure is 6.33‡; as for `COc1cccnc1N1CCN(c2ccn3c(CC4CC4)nnc3c2C(F)(F)F)CC1` [compound 92], 6.87.

On to `Clc1c(N2CCC(c3ccccc3)C2)ccn2c(CC3CC3)nnc12` (stereo not drawn) [compound 173], for which the “GTPγS - hR2 PAM pEC50” value was 6.32‡. On to `CCOCc1nnc2c(C(F)(F)F)c(N3CCC(c4ccc(F)cc4F)CC3)ccn12.Cl` [compound 339], for which the “GTPγS - hR2 PAM pEC50” value is 7.15‡. As for `N#Cc1c(N2CCC(c3ccccc3)CC2)ccn2c(CN3CCCC3)nnc12` [compound 36], the figure is 5.95‡; as for `O=C1N(c2ccc(F)cc2F)CC12CCN(c1ccn3c(CC4CC4)nnc3c1Cl)CC2` [compound 213], 6.03‡; as for `CC(C)OCc1nnc2c(C(F)(F)F)c(N3CCC(c4ccccc4)CC3)ccn12` [compound 122], 7.3. As for `FC(F)(F)Cc1nnc2c(Cl)c(N3CCN(c4ncccn4)CC3)ccn12` [compound 63], the figure is 6.08; as for `FC(F)(F)c1c(N2CC3C(C2)C3c2ccccc2)ccn2c(CC3CC3)nnc12` (racemic) [compound 75], 7.05.

Consider `CC(C)OCc1nnc2c(Cl)c(N3CCC(c4ccccc4)CC3)ccn12` [compound 135], for which the “GTPγS - hR2 PAM pEC50” value turned out to be 6.77. As for `FC1(F)CCN(C2CCN(c3ccn4c(CC5CC5)nnc4c3C(F)(F)F)CC2)CC1` [compound 238], the figure is 6.08‡. As for `COc1cnc(C2CCN(c3ccn4c(CC5CC5)nnc4c3C(F)(F)F)CC2)nc1` [compound 111], the figure is 6.26; as for `COc1cccc(F)c1N1CCN(c2ccn3c(CC4CC4)nnc3c2Cl)CC1` [compound 302], 6.55. `Fc1ccc(C2CCN(c3ccn4c(CC5CC5)nnc4c3C(F)(F)F)CC2)c(F)c1` [compound 195]: the “GTPγS - hR2 PAM pEC50” value is on record as 7.98. `CCc1nnc2c(Cl)c(N3CCC4(CC3)OCc3ccccc34)ccn12` [compound 102]: the “GTPγS - hR2 PAM pEC50” value came out at 6.5. Take `FC(F)(F)Cc1nnc2c(Cl)c(N3CCN(c4ccccc4)CC3)ccn12` [compound 101]: the “GTPγS - hR2 PAM pEC50” value was found to be 6.24. As for `CCOCc1nnc2c(C(F)(F)F)c(N3CCC(Oc4ncccc4C)CC3)ccn12` [compound 134], the figure is 7.17; as for `Cc1cc(OC2CCN(c3ccn4c(CC5CC5)nnc4c3C(F)(F)F)CC2)ccn1` [compound 165], 6.41.

Consider `CC(C)OCc1nnc2c(Cl)c(N3CCC(F)(c4ccccc4)CC3)ccn12` [compound 127], for which the “GTPγS - hR2 PAM pEC50” value is on record as 6.42. As for `CCc1nnc2c(C#N)c(N3CCC(c4cccc(F)c4OC)CC3)ccn12` [compound 21], the figure is 6.61; as for `CC(C)OCc1nnc2c(C(F)(F)F)c(N3CCC(Oc4ccccn4)CC3)ccn12` [compound 150], 6.97‡. As for `FC(F)(F)c1c(N2CCC3(CC2)COc2ccccc2O3)ccn2c(CC3CC3)nnc12` [compound 79], the figure is 7.28; as for `Cc1cccnc1OC1CCN(c2ccn3c(COC(C)C)nnc3c2C(F)(F)F)CC1` [compound 162], 6.93. As for `CC1(c2ccccc2F)CCN(c2ccn3c(CC4CC4)nnc3c2C(F)(F)F)CC1` [compound 193], the figure is 8.26.
